Data: patent publication US9302999B2, “Substituted triazoles as herbicides” (E. I. DU PONT DE NEMOURS AND COMPANY, priority 2012, dated 2016)

Legend:
Type in all cases: in vivo
[1] = tested on: pigweed (Amaranthus retroflexus); assay: Test A pre-/postemergence: pigweed
Description: (§1) Seeds of barnyardgrass (Echinochloa crus-galli), crabgrass, large (large crabgrass, Digitaria sanguinalis), foxtail, giant (giant foxtail, Setaria faberii), morningglory (Ipomoea spp.), pigweed (Amaranthus retroflexus), velvetleaf (Abutilon theophrasti), wheat (Triticum aestivum), and corn (Zea mays) were planted into a blend of loam soil and sand and treated preemergence with a directed soil spray using test chemicals formulated in a non-phytotoxic solvent mixture which included a surfactant. At the same time these species were also treated with postemergence applications of test chemicals formulated in the same manner.
(§2) Plants ranged in height from two to ten cm and were in the one- to two-leaf stage for the postemergence treatment. Treated plants and untreated controls were maintained in a greenhouse for approximately ten days, after which time all treated plants were compared to untreated controls and visually evaluated for injury. Plant response ratings, summarized in Table A, are based on a 0 to 100 scale where 0 is no effect and 100 is complete control. A dash (-) response means no test result.

[2] = tested on: foxtail, giant (giant foxtail, Setaria faberii); assay: Test A pre-/postemergence: foxtail, giant
Description: as §1, §2

[3] = tested on: wheat (Triticum aestivum); assay: Test A pre-/postemergence: wheat
Description: as §1, §2

[4] = tested on: crabgrass, large (large crabgrass, Digitaria sanguinalis); assay: Test A pre-/postemergence: crabgrass, large
Description: as §1, §2

corn (Zea mays) = assay: Test A pre-/postemergence: corn
Description: as §1, §2

[5] = tested on: velvetleaf (Abutilon theophrasti); assay: Test A pre-/postemergence: velvetleaf
Description: as §1, §2

[6] = tested on: morningglory (Ipomoea spp.); assay: Test A pre-/postemergence: morningglory
Description: as §1, §2

[7] = tested on: barnyardgrass (Echinochloa crus-galli); assay: Test A pre-/postemergence: barnyardgrass
Description: as §1, §2

[8] = Postemergence, 125 g ai/ha, 0 to 100 scale, 0 is no effect, 100 is complete control
[9] = Postemergence, 500 g ai/ha, visual rating on 0 to 100 scale (0 no effect, 100 complete control), approximately ten days
[10] = Preemergence, 125 g ai/ha, 0 to 100 scale (0 no effect, 100 complete control)
[11] = Preemergence, 500 g ai/ha, 0 to 100 scale, 0 is no effect, 100 is complete control
[12] = Postemergence, 1000 g ai/ha, visual rating on 0 to 100 scale (0 no effect, 100 complete control), approximately ten days
[13] = Preemergence, 1000 g ai/ha, 0 to 100 scale, 0 is no effect, 100 is complete control
[14] = Preemergence, 125 g ai/ha, 0 to 100 scale where 0 is no effect and 100 is complete control
[15] = Preemergence, 500 g ai/ha, 0 to 100 scale (0 no effect, 100 complete control)

Cc1nn(-c2ccc(C(F)(F)F)cc2)nc1Nc1cccc(C(F)(F)F)c1 [Compound 69]
Pigweed plant response rating [1, 8]: 30 | Pigweed plant response rating [1, 9]: 90 | Plant response rating, Pigweed [1, 10]: 0 | Plant response rating, Pigweed [1, 11]: 10 | Foxtail, Giant plant response rating [2, 8]: 10 | Foxtail, Giant plant response rating [2, 9]: 10 | Plant response rating, Foxtail, Giant [2, 10]: 0 | Plant response rating, Foxtail, Giant [2, 11]: 0 | Wheat plant response rating [3, 8]: 0 | Wheat plant response rating [3, 9]: 10 | Plant response rating, Wheat [3, 10]: 0 | Plant response rating, Wheat [3, 11]: 0 | Crabgrass, Large plant response rating [4, 8]: 10 | Crabgrass, Large plant response rating [4, 9]: 20 | Plant response rating, Crabgrass, Large [4, 10]: 0 | Plant response rating, Crabgrass, Large [4, 11]: 10 | Corn plant response rating (corn (Zea mays); [8]): 10 | Corn plant response rating (corn (Zea mays); [9]): 20 | Plant response rating, Corn (corn (Zea mays); [10]): 0 | Plant response rating, Corn (corn (Zea mays); [11]): 0 | Velvetleaf plant response rating [5, 8]: 10 | Velvetleaf plant response rating [5, 9]: 20 | Plant response rating, Velvetleaf [5, 10]: 0 | Plant response rating, Velvetleaf [5, 11]: 0 | Morningglory plant response rating [6, 8]: 20 | Morningglory plant response rating [6, 9]: 30 | Plant response rating, Morningglory [6, 10]: 0 | Plant response rating, Morningglory [6, 11]: 0 | Barnyardgrass plant response rating [7, 8]: 10 | Barnyardgrass plant response rating [7, 9]: 10 | Plant response rating, Barnyardgrass [7, 10]: 0 | Plant response rating, Barnyardgrass [7, 11]: 0

Cc1nn(-c2ccc(F)cc2)nc1Cn1nc(C(F)(F)F)cc1C [Compound 97]
Pigweed plant response rating [1, 12]: 60 | Pigweed plant response rating [1, 13]: 0 | Foxtail, Giant plant response rating [2, 12]: 20 | Foxtail, Giant plant response rating [2, 13]: 20 | Wheat plant response rating [3, 12]: 0 | Wheat plant response rating [3, 13]: 0 | Crabgrass, Large plant response rating [4, 12]: 60 | Crabgrass, Large plant response rating [4, 13]: 40 | Corn plant response rating (corn (Zea mays); [12]): 10 | Corn plant response rating (corn (Zea mays); [13]): 0 | Velvetleaf plant response rating [5, 12]: 50 | Velvetleaf plant response rating [5, 13]: 0 | Morningglory plant response rating [6, 12]: 40 | Morningglory plant response rating [6, 13]: 0 | Barnyardgrass plant response rating [7, 12]: 30 | Barnyardgrass plant response rating [7, 13]: 30

Cc1nn(-c2ccc(F)cc2)nc1Oc1nccc(C(F)(F)F)n1 [Compound 102]
Pigweed plant response rating [1, 8]: 10 | Pigweed plant response rating [1, 9]: 70 | Plant response rating, Pigweed [1, 14]: 0 | Plant response rating, Pigweed [1, 11]: 0 | Foxtail, Giant plant response rating [2, 8]: 0 | Foxtail, Giant plant response rating [2, 9]: 0 | Plant response rating, Foxtail, Giant [2, 14]: 0 | Plant response rating, Foxtail, Giant [2, 11]: 0 | Wheat plant response rating [3, 8]: 0 | Wheat plant response rating [3, 9]: 0 | Plant response rating, Wheat [3, 14]: 0 | Plant response rating, Wheat [3, 11]: 0 | Crabgrass, Large plant response rating [4, 8]: 0 | Crabgrass, Large plant response rating [4, 9]: 10 | Plant response rating, Crabgrass, Large [4, 10]: 0 | Plant response rating, Crabgrass, Large [4, 11]: 0 | Corn plant response rating (corn (Zea mays); [8]): 0 | Corn plant response rating (corn (Zea mays); [9]): 0 | Plant response rating, Corn (corn (Zea mays); [10]): 0 | Plant response rating, Corn (corn (Zea mays); [11]): 0 | Velvetleaf plant response rating [5, 8]: 0 | Velvetleaf plant response rating [5, 9]: 0 | Plant response rating, Velvetleaf [5, 14]: 0 | Plant response rating, Velvetleaf [5, 11]: 0 | Morningglory plant response rating [6, 8]: 0 | Morningglory plant response rating [6, 9]: 0 | Plant response rating, Morningglory [6, 14]: 0 | Plant response rating, Morningglory [6, 11]: 0 | Barnyardgrass plant response rating [7, 8]: 0 | Barnyardgrass plant response rating [7, 9]: 0 | Plant response rating, Barnyardgrass [7, 10]: 0 | Plant response rating, Barnyardgrass [7, 11]: 0

Cc1nn(-c2ccc(C(F)(F)F)cc2)nc1Oc1cc(C(F)(F)F)nn1C [Compound 104]
Pigweed plant response rating [1, 8]: 70 | Pigweed plant response rating [1, 9]: 100 | Plant response rating, Pigweed [1, 14]: 30 | Plant response rating, Pigweed [1, 11]: 90 | Foxtail, Giant plant response rating [2, 8]: 20 | Foxtail, Giant plant response rating [2, 9]: 50 | Plant response rating, Foxtail, Giant [2, 14]: 60 | Plant response rating, Foxtail, Giant [2, 11]: 90 | Wheat plant response rating [3, 8]: 0 | Wheat plant response rating [3, 9]: 0 | Plant response rating, Wheat [3, 14]: 0 | Plant response rating, Wheat [3, 11]: 0 | Crabgrass, Large plant response rating [4, 8]: 50 | Crabgrass, Large plant response rating [4, 9]: 70 | Plant response rating, Crabgrass, Large [4, 10]: 60 | Plant response rating, Crabgrass, Large [4, 11]: 90 | Corn plant response rating (corn (Zea mays); [8]): 10 | Corn plant response rating (corn (Zea mays); [9]): 20 | Plant response rating, Corn (corn (Zea mays); [10]): 0 | Plant response rating, Corn (corn (Zea mays); [11]): 0 | Velvetleaf plant response rating [5, 8]: 30 | Velvetleaf plant response rating [5, 9]: 60 | Plant response rating, Velvetleaf [5, 14]: 0 | Plant response rating, Velvetleaf [5, 11]: 30 | Morningglory plant response rating [6, 8]: 60 | Morningglory plant response rating [6, 9]: 90 | Plant response rating, Morningglory [6, 14]: 0 | Plant response rating, Morningglory [6, 11]: 0 | Barnyardgrass plant response rating [7, 8]: 20 | Barnyardgrass plant response rating [7, 9]: 30 | Plant response rating, Barnyardgrass [7, 10]: 10 | Plant response rating, Barnyardgrass [7, 11]: 20

CCc1nn(-c2ccc(C(F)(F)F)cc2)nc1Cn1cnc(C(F)(F)F)c1Cl [Compound 121]
Pigweed plant response rating [1, 8]: 0 | Pigweed plant response rating [1, 9]: 20 | Plant response rating, Pigweed [1, 14]: 0 | Plant response rating, Pigweed [1, 15]: 0 | Foxtail, Giant plant response rating [2, 8]: 0 | Foxtail, Giant plant response rating [2, 9]: 0 | Plant response rating, Foxtail, Giant [2, 14]: 0 | Plant response rating, Foxtail, Giant [2, 15]: 0 | Wheat plant response rating [3, 8]: 0 | Wheat plant response rating [3, 9]: 0 | Plant response rating, Wheat [3, 14]: 0 | Plant response rating, Wheat [3, 15]: 0 | Crabgrass, Large plant response rating [4, 8]: 0 | Crabgrass, Large plant response rating [4, 9]: 10 | Plant response rating, Crabgrass, Large [4, 14]: 0 | Plant response rating, Crabgrass, Large [4, 15]: 10 | Corn plant response rating (corn (Zea mays); [8]): 0 | Corn plant response rating (corn (Zea mays); [9]): 10 | Plant response rating, Corn (corn (Zea mays); [14]): 0 | Plant response rating, Corn (corn (Zea mays); [15]): 0 | Velvetleaf plant response rating [5, 8]: 0 | Velvetleaf plant response rating [5, 9]: 10 | Plant response rating, Velvetleaf [5, 14]: 0 | Plant response rating, Velvetleaf [5, 15]: 0 | Morningglory plant response rating [6, 8]: 0 | Morningglory plant response rating [6, 9]: 0 | Plant response rating, Morningglory [6, 14]: 0 | Plant response rating, Morningglory [6, 15]: 0 | Barnyardgrass plant response rating [7, 8]: 0 | Barnyardgrass plant response rating [7, 9]: 0 | Plant response rating, Barnyardgrass [7, 14]: 0 | Plant response rating, Barnyardgrass [7, 15]: 0

Cc1nn(-c2ccc(F)cc2)nc1Oc1cccc(C(F)(F)F)n1 [Compound 127]
Pigweed plant response rating [1, 8]: 40 | Pigweed plant response rating [1, 9]: 60 | Plant response rating, Pigweed [1, 14]: 0 | Plant response rating, Pigweed [1, 15]: 20 | Foxtail, Giant plant response rating [2, 8]: 10 | Foxtail, Giant plant response rating [2, 9]: 20 | Plant response rating, Foxtail, Giant [2, 14]: 10 | Plant response rating, Foxtail, Giant [2, 15]: 30 | Wheat plant response rating [3, 8]: 0 | Wheat plant response rating [3, 9]: 10 | Plant response rating, Wheat [3, 14]: 0 | Plant response rating, Wheat [3, 15]: 0 | Crabgrass, Large plant response rating [4, 8]: 10 | Crabgrass, Large plant response rating [4, 9]: 30 | Plant response rating, Crabgrass, Large [4, 14]: 10 | Plant response rating, Crabgrass, Large [4, 15]: 40 | Corn plant response rating (corn (Zea mays); [8]): 10 | Corn plant response rating (corn (Zea mays); [9]): 20 | Plant response rating, Corn (corn (Zea mays); [14]): 0 | Plant response rating, Corn (corn (Zea mays); [15]): 0 | Velvetleaf plant response rating [5, 8]: 20 | Velvetleaf plant response rating [5, 9]: 20 | Plant response rating, Velvetleaf [5, 14]: 0 | Plant response rating, Velvetleaf [5, 15]: 0 | Morningglory plant response rating [6, 8]: 20 | Morningglory plant response rating [6, 9]: 30 | Plant response rating, Morningglory [6, 14]: 0 | Plant response rating, Morningglory [6, 15]: 0 | Barnyardgrass plant response rating [7, 8]: 10 | Barnyardgrass plant response rating [7, 9]: 20 | Plant response rating, Barnyardgrass [7, 14]: 0 | Plant response rating, Barnyardgrass [7, 15]: 10
